Measurements as given in PubChem BioAssay AID1996.
Converted amounts (≈) assume the structure as drawn.

Details: buffer; pH 7.4; 200.0 µM

Compared with CCOC(=O)C(=CNc1cc(C)ccc1[N+](=O)[O-])C(=O)OCC, CCOC(=O)C1CCN(C(=O)COC(=O)c2ccccc2OCC)CC1 is higher in solubility kinetic: < 0.3 µg/mL for the first, > 54.5 µg/mL for the second.

First: Brc1ccc(-c2cnco2)cc1
Second: Cc1cccc2nc(-c3ccco3)oc(=O)c12
The solubility kinetic of the first is 9.8-fold lower: 2.2 µg/mL (≈ 9.82 µM) for the first, 21.6 µg/mL (≈ 95.1 µM) for the second.

First: Cc1ccc(C(=O)N2CCc3ccccc32)cc1[N+](=O)[O-]
Second: Nc1ccc(S(=O)(=O)N2CCc3ccccc32)cc1
The solubility kinetic of the first is lower: < 0.3 µg/mL for the first, > 41.2 µg/mL for the second.

First: CN1c2ccccc2C(=O)/C(=C\Nc2ccc(F)cc2)S1(=O)=O
Second: COC(=O)C(Cc1ccc(O)cc1)N1Cc2ccccc2C1=O (stereo not given)
The solubility kinetic of the first is lower: < 0.4 µg/mL for the first, > 46.7 µg/mL for the second.

Going from O=C(NC(=S)Nc1cccnc1)c1cccs1 to COc1ccc(CNC(=O)c2ccncc2)cc1, the solubility kinetic rises from 10.4 µg/mL (≈ 39.5 µM) to > 36.3 µg/mL.

First: Cc1cnc(C(=O)OCC(=O)Nc2cccc(S(=O)(=O)N3CCOCC3)c2)cn1
Second: O=C(COC(=O)c1ccc2c(c1)OCO2)Nc1ccccc1
The solubility kinetic of the first is higher: > 63.1 µg/mL for the first, 4.5 µg/mL (≈ 15 µM) for the second.

O=C(CNC(=O)c1ccc(Br)o1)NC1CCCCC1 and O=C(COC(=O)Cc1ccc(F)cc1)NC1CCCC1 cannot be ordered by solubility kinetic: > 49.4 µg/mL for the first, > 41.9 µg/mL for the second.

COc1cc(CCN)ccc1O.Cl and COc1ccc(Cl)cc1NC(=S)N1CC(C)OC(C)C1 (stereo not given) cannot be ordered by solubility kinetic: > 30.6 µg/mL for the first, > 47.2 µg/mL for the second.

Going from CC(C)(C)S(=O)(=O)c1cnc(N2CCCC2)nc1N to CCOC(=O)N1CCN(C(=O)c2cc3ccc(OC)cc3[nH]2)CC1, the solubility kinetic falls from 37.9 µg/mL (≈ 133 µM) to 19.5 µg/mL (≈ 58.8 µM) (1.9-fold).

Going from COCc1cc(=O)[nH]c2cc(NC(=O)c3cccc(OC)c3)c(C)cc12 to COc1ccc(C(=O)NCc2cc(C)nc3ccccc23)cc1OC, the solubility kinetic rises from 1.1 µg/mL (≈ 3.12 µM) to 39.6 µg/mL (≈ 118 µM) (36-fold).

First: Cc1cc(C)n(-c2c(C)[nH]c3ccccc23)n1
Second: Cc1cc(C)cc(NC(=O)c2cc(C)nc3ccccc23)c1
The solubility kinetic of the first is higher: > 33.8 µg/mL for the first, < 0.3 µg/mL for the second.

First: O=C(CCc1c[nH]c2ccccc12)NCCc1ccc2c(c1)OCCO2
Second: O=C(CCc1ccccc1)NCC(=O)N/N=C/c1ccc(O)cc1O
The solubility kinetic of the first is lower: 44.4 µg/mL (≈ 127 µM) for the first, > 51.2 µg/mL for the second.

Compared with CS(=O)(=O)c1ccc2nc(NC(=O)Nc3ccccc3F)sc2c1, COc1ccc(NS(=O)(=O)c2cccc(C(=O)Nc3ccccc3C(=O)O)c2)cc1 is higher in solubility kinetic: 0.8 µg/mL (≈ 2.19 µM) for the first, > 64 µg/mL for the second.

First: CC1CCC(NCCNC(=O)c2ccco2)CC1 (stereo not given)
Second: CC1CCCN(S(=O)(=O)c2cccc(C(=O)NCC3CCCO3)c2)C1 (stereo not given)
The solubility kinetic of the first is lower: 26.7 µg/mL (≈ 107 µM) for the first, > 55 µg/mL for the second.

Going from Cc1nc(NC(=O)COC(=O)CCc2ccccc2)c(Cl)cc1Cl to Cc1cccc(NC(=O)CNC(=O)c2ccccc2Cl)n1, the solubility kinetic rises from 21.8 µg/mL (≈ 59.4 µM) to > 45.6 µg/mL.

O=C(Cc1ccccc1)NCC(=O)N1CCC1 and CCOc1ccccc1C(=O)OCC(=O)NCC1CCCCC1 cannot be ordered by solubility kinetic: > 34.8 µg/mL for the first, > 47.9 µg/mL for the second.

O=C(Nc1cccc(C(F)(F)F)c1)c1sc(Cl)nc1C(F)(F)F and O=S(=O)(NCC(O)c1ccccc1)c1cc(Cl)sc1Cl (stereo not given) are within 1.5-fold of each other in solubility kinetic: 36.3 µg/mL (≈ 96.9 µM) for the first, 49.7 µg/mL (≈ 141 µM) for the second.

N#CCc1ccc(Oc2ccc([N+](=O)[O-])cn2)cc1 and Cc1ccc(OCC(=O)NCCNC(=O)c2ccncc2)cc1 are within 1.5-fold of each other in solubility kinetic: 35.6 µg/mL (≈ 139 µM) for the first, 45.1 µg/mL (≈ 144 µM) for the second.

Going from COc1ccccc1NC(=O)COC(=O)c1oc2ccccc2c1C to CCC(=O)c1cn(CC(=O)Nc2cccc(C)c2C)c2ccccc12, the solubility kinetic falls from 6 µg/mL (≈ 17.7 µM) to < 0.4 µg/mL.

First: COc1ccc(S(=O)(=O)NCc2c(-c3ccccc3)noc2C)c(OC)c1
Second: Cc1noc(C)c1S(=O)(=O)N(Cc1ccccc1)C(C)C
The solubility kinetic of the first is 8.3-fold lower: 4.4 µg/mL (≈ 11.3 µM) for the first, 36.5 µg/mL (≈ 118 µM) for the second.

Going from Nc1nccnc1C(=O)OCC(=O)C12CC3CC(CC(C3)C1)C2 to CC(=O)Nc1ccc(NC(=O)CC23CC4CC(CC(C4)C2)C3)cc1, the solubility kinetic rises from 2.9 µg/mL (≈ 9.2 µM) to 21.3 µg/mL (≈ 65.2 µM) (7.3-fold).

Cc1ccc(-n2c(O)c(C=NCc3ccccn3)c(=O)[nH]c2=S)cc1 and C=CCSc1nc2sc3c(c2c(=O)n1-c1ccc(C)cc1)CCN(C)C3 are within 1.5-fold of each other in solubility kinetic: 29.6 µg/mL (≈ 84 µM) for the first, 22.3 µg/mL (≈ 58.1 µM) for the second.

First: Cc1ccc(S(=O)(=O)NCC(=O)OCC(=O)N2C(C)CCCC2C)cc1 (stereo not given)
Second: CC(C)c1ccc(NC(=O)COC(=O)CC2CCCC2)cc1
The solubility kinetic of the first is 6.9-fold higher: 53.9 µg/mL (≈ 141 µM) for the first, 7.8 µg/mL (≈ 25.7 µM) for the second.

Compared with COC(=O)[C@H](CCSC)NC(=O)Nc1cccc(C)c1C, Cc1cc(-n2c(C)cc(C(=O)COc3ccc(Cl)cc3C(N)=O)c2C)no1 is 14-fold lower in solubility kinetic: 37.1 µg/mL (≈ 120 µM) for the first, 2.7 µg/mL (≈ 6.96 µM) for the second.

First: CCOc1ccccc1N1CCN(C(=O)NCc2ccc(C)cc2)CC1
Second: CCOc1ccccc1OCC(=O)Nc1nc2ccccc2[nH]1
The solubility kinetic of the first is higher: > 53 µg/mL for the first, 4.1 µg/mL (≈ 13.2 µM) for the second.

First: Nc1ccc2c(c1)COC2=O
Second: O=c1c(-c2ccccc2)cnc2n1CCS2
The solubility kinetic of the first is lower: 22.2 µg/mL (≈ 149 µM) for the first, > 34.5 µg/mL for the second.

First: Cc1ccc(Nc2c(F)c(F)c(F)c(F)c2C(=O)O)c(C)c1
Second: COc1ccc(-c2cn(-c3ccc(C)c(Cl)c3)c(=S)[nH]2)cc1OC
The solubility kinetic of the first is 3.4-fold higher: 40.4 µg/mL (≈ 129 µM) for the first, 11.9 µg/mL (≈ 33 µM) for the second.

First: COc1ccc(C(=O)NCC2(c3ccccc3)CCOCC2)cc1
Second: CC1(CCc2ccccc2)NC(=O)N(CC(=O)Nc2ccc(OC(F)F)cc2)C1=O (stereo not given)
The solubility kinetic of the first is 4.1-fold higher: 47.1 µg/mL (≈ 145 µM) for the first, 11.4 µg/mL (≈ 27.3 µM) for the second.

Compared with CCCc1cc(=O)oc2cc(OCC(=O)N3CCOCC3)c(Cl)cc12, O=C(CSc1nc(-c2ccc(F)cc2)cs1)NCC1CCCO1 (stereo not given) is higher in solubility kinetic: 3.8 µg/mL (≈ 10.4 µM) for the first, > 52.9 µg/mL for the second.

Going from CN(C)c1ccc(C=NCCc2ccc(S(N)(=O)=O)cc2)cc1 to COc1ccc(C(=O)CSc2nc3ncccc3[nH]2)cc1OC, the solubility kinetic falls from 37.1 µg/mL (≈ 112 µM) to 13.4 µg/mL (≈ 40.7 µM) (2.8-fold).
